Laboratory results published in ChEMBL document CHEMBL4507298 (2021).

Columns and labels:
[1] = molecular target: Serine/threonine-protein kinase PAK 2 (Homo sapiens) (UniProt Q13177); settings: Compound concentration 1000.0 nM
[2] = molecular target: Tyrosine-protein kinase receptor Tie-1 (Homo sapiens) (UniProt P35590); settings: Compound concentration 1000.0 nM
[3] = molecular target: MAP kinase-activated protein kinase 5 (Homo sapiens) (UniProt Q8IW41); settings: Compound concentration 1000.0 nM
[4] = molecular target: Serine/threonine-protein kinase Nek4 (Homo sapiens) (UniProt P51957); settings: Compound concentration 1000.0 nM
[5] = system: Receptor-type tyrosine-protein kinase FLT3 (Homo sapiens), P36888 [UNDEFINED MUTATION]; settings: Compound concentration 1000.0 nM
[6] = molecular target: Voltage-gated L-type calcium channel (DHP site) (Homo sapiens, UniProt O60840+Q01668+Q13698+Q13936); test: Ca2+ channel (L, DHP site) CEREP ligand profiling; type: protein assay; settings: compound concentration 10 uM
[7] = molecular target: G protein-coupled receptor kinase 3 (Homo sapiens) (UniProt P35626); settings: Compound concentration 1000.0 nM
[8] = molecular target: T1, 5-hydroxytryptamine receptor 2C (Homo sapiens) (UniProt P28335); test: 5-HT2C (h) (agonist site) CEREP ligand profiling; settings: Compound concentration 10.0 uM
T1 sequence (whole entry): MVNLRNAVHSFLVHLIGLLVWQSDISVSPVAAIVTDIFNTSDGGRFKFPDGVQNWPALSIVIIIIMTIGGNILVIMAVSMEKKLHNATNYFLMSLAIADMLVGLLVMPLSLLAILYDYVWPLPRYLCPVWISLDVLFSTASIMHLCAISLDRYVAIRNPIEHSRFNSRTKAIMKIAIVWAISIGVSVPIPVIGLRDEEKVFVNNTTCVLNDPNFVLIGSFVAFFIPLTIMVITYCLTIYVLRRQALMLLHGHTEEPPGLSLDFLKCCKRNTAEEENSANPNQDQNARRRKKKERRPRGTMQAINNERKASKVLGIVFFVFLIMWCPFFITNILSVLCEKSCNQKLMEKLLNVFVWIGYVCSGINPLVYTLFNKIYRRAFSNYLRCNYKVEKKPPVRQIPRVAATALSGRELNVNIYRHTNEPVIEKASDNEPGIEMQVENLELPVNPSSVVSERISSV

[9] = molecular target: Carbonic anhydrase 2 (Homo sapiens) (UniProt P00918); test: Carbonic anhydrase II (h) CEREP ligand profiling; settings: Compound concentration 10.0 uM
[10] = molecular target: Adenosine receptor A1 (Homo sapiens) (UniProt P30542); test: A1 (h) CEREP ligand profiling; settings: Compound concentration 10.0 uM
[11] = molecular target: Casein kinase I isoform gamma-1 (Homo sapiens) (UniProt Q9HCP0); settings: Compound concentration 1000.0 nM
[12] = molecular target: cGMP-dependent protein kinase 2 (Homo sapiens) (UniProt Q13237); settings: Compound concentration 1000.0 nM
[13] = molecular target: cAMP-dependent protein kinase catalytic subunit PRKX (Homo sapiens) (UniProt P51817); settings: Compound concentration 1000.0 nM
[14] = system: Tyrosine-protein kinase ABL1 (Homo sapiens), P00519 [Q252H]; settings: Compound concentration 1000.0 nM
[15] = molecular target: Dual specificity mitogen-activated protein kinase kinase 3 (Homo sapiens) (UniProt P46734); settings: Compound concentration 1000.0 nM
[16] = molecular target: Adenosine receptor A3 (Homo sapiens) (UniProt P0DMS8); test: A3 (h) CEREP ligand profiling; settings: Compound concentration 10.0 uM
[17] = molecular target: Serine/threonine-protein kinase TAO3 (Homo sapiens) (UniProt Q9H2K8); settings: Compound concentration 1000.0 nM
[18] = molecular target: Bone morphogenetic protein receptor type-1A (Homo sapiens) (UniProt P36894); settings: Compound concentration 1000.0 nM
[19] = molecular target: Dual specificity protein kinase CLK3 (Homo sapiens) (UniProt P49761); settings: Compound concentration 1000.0 nM
[20] = molecular target: GABA-A receptor; anion channel (Homo sapiens) (UniProt P14867+P47870+P18507+P28472+P48169+Q99928+Q9UN88+P34903+O00591+O14764+Q8N1C3+P18505+P78334+P47869+P31644+Q16445); test: GABAA CEREP ligand profiling; type: protein-complex assay; settings: Compound concentration 10.0 uM
[21] = molecular target: Serine/threonine-protein kinase Sgk2 (Homo sapiens) (UniProt Q9HBY8); settings: Compound concentration 1000.0 nM
[22] = system: Tyrosine-protein kinase ABL1 (Homo sapiens), P00519 [M351T]; settings: Compound concentration 1000.0 nM
[23] = system: Mast/stem cell growth factor receptor Kit (Homo sapiens), P10721 [D816H]; settings: Compound concentration 1000.0 nM
[24] = molecular target: T2, Muscarinic acetylcholine receptor M5 (Homo sapiens) (UniProt P08912); test: M5 (h) CEREP ligand profiling; settings: Compound concentration 10.0 uM
T2 sequence (whole entry): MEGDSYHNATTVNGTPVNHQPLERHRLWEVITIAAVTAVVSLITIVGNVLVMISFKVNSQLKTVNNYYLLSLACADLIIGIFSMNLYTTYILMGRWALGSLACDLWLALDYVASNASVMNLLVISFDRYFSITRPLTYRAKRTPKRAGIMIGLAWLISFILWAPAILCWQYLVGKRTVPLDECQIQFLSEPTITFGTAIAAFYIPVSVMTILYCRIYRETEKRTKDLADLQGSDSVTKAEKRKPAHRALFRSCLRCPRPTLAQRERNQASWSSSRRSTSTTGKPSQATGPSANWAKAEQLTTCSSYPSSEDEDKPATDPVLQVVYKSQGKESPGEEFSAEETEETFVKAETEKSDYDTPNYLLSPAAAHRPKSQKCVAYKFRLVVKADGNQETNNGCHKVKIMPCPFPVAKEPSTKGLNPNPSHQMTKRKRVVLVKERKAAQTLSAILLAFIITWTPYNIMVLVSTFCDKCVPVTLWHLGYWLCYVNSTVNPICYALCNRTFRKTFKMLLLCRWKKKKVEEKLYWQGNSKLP

[25] = molecular target: RAC-gamma serine/threonine-protein kinase (Homo sapiens) (UniProt Q9Y243); settings: Compound concentration 1000.0 nM
[26] = molecular target: LIM domain kinase 2 (Homo sapiens) (UniProt P53671); settings: Compound concentration 1000.0 nM
[27] = molecular target: Tyrosine-protein kinase Lck (Homo sapiens) (UniProt P06239); settings: Compound concentration 1000.0 nM
[28] = molecular target: Tyrosine-protein kinase ABL1 (Homo sapiens) (UniProt P00519); test: Abl kinase (h) CEREP ligand profiling; settings: Compound concentration 10.0 uM
[29] = molecular target: Serine/threonine-protein kinase LATS2 (Homo sapiens) (UniProt Q9NRM7); settings: Compound concentration 1000.0 nM
[30] = molecular target: Serine/threonine-protein kinase D1 (Homo sapiens) (UniProt Q15139); settings: Compound concentration 1000.0 nM

Chain of Mast/stem cell growth factor receptor Kit (Homo sapiens), P10721 [D816H] (P10721 whole entry D816H): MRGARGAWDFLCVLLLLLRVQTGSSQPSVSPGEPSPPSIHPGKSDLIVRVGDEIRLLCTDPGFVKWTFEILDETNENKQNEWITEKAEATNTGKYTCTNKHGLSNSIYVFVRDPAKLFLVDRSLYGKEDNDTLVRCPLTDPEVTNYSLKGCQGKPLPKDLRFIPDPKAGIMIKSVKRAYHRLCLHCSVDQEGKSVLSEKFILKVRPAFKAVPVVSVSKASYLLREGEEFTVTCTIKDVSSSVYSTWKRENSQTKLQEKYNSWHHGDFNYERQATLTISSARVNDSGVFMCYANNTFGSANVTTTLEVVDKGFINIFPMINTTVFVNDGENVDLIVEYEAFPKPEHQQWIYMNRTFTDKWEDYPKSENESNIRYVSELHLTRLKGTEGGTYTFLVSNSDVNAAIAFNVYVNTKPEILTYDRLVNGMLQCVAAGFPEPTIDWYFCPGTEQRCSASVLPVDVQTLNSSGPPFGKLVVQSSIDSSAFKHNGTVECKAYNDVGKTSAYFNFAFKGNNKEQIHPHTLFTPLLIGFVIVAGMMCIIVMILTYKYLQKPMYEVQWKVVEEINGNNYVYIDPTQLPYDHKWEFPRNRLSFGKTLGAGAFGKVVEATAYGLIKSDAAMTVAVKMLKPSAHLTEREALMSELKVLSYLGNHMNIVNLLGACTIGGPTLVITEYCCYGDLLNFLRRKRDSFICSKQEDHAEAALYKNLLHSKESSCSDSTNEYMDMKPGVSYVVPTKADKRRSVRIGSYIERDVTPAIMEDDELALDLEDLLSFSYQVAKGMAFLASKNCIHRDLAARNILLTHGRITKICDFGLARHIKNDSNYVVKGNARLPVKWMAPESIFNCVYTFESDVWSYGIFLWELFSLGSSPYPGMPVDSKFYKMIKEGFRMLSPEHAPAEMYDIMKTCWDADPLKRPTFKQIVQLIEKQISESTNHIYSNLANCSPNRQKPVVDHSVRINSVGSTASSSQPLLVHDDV
Chain of Serine/threonine-protein kinase TAO3 (Homo sapiens) (Q9H2K8 whole entry): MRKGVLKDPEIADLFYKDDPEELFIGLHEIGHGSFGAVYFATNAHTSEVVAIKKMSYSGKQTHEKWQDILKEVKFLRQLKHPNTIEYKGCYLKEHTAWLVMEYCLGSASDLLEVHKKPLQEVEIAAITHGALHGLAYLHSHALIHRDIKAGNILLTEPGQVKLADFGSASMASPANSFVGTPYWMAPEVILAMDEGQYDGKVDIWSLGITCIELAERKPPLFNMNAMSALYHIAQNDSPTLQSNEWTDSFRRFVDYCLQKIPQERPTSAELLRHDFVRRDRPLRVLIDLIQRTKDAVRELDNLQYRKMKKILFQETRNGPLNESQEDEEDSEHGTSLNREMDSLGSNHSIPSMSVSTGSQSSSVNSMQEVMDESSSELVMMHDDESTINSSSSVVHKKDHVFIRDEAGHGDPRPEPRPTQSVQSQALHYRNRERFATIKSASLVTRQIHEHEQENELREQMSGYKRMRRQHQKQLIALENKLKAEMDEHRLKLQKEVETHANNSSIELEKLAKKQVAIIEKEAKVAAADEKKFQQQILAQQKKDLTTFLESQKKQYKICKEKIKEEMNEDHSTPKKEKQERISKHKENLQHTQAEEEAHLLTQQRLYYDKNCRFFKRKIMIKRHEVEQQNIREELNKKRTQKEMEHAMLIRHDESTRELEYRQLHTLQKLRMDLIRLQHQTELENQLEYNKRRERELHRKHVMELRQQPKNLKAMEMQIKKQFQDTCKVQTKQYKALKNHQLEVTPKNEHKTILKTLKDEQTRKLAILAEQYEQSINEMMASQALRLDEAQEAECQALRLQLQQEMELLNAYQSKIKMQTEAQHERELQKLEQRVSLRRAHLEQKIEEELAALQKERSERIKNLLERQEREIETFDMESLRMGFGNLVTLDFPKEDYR
Chain of Receptor-type tyrosine-protein kinase FLT3 (Homo sapiens), P36888 [UNDEFINED MUTATION] (P36888 whole entry, looked up, change not shown): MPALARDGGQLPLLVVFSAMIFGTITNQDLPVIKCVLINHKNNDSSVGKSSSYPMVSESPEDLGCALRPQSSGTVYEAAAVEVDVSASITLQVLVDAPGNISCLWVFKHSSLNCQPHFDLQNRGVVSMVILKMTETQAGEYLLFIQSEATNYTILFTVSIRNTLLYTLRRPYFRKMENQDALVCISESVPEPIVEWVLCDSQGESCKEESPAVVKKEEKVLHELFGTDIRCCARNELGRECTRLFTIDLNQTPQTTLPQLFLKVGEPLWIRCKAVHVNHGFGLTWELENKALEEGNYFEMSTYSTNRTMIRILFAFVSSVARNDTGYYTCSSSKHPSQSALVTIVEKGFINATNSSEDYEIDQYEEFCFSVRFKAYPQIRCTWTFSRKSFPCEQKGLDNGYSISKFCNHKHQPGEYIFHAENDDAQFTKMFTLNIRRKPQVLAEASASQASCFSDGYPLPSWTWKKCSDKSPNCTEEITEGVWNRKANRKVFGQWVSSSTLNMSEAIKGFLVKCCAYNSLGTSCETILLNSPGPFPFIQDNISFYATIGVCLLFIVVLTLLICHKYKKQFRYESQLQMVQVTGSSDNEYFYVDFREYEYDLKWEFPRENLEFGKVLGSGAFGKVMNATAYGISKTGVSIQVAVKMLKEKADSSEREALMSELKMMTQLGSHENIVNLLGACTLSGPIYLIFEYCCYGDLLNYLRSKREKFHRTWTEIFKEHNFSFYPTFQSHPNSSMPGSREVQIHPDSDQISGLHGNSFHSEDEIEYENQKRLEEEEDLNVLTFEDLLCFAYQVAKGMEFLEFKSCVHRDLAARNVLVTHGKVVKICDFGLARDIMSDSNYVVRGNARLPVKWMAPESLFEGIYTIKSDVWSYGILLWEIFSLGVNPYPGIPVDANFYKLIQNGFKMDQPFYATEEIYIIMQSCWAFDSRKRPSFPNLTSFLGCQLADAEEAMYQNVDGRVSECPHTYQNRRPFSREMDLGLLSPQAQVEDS
Chain of Bone morphogenetic protein receptor type-1A (Homo sapiens) (P36894 whole entry): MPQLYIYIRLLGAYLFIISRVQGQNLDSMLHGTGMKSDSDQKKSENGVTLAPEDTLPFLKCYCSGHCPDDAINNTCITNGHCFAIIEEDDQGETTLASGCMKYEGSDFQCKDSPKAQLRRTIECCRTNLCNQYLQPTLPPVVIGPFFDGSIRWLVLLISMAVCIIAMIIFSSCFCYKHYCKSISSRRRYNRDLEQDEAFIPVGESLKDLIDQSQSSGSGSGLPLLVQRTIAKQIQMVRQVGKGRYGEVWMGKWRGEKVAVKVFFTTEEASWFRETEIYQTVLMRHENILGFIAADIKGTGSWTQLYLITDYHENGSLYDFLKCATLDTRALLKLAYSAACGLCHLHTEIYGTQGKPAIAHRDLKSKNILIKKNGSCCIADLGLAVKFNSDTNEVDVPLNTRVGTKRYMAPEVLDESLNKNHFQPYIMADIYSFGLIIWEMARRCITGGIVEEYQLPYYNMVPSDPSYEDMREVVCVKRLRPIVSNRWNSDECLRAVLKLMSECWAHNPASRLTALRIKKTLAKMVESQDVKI
Chain of Casein kinase I isoform gamma-1 (Homo sapiens) (Q9HCP0 whole entry, looked up, canonical isoform): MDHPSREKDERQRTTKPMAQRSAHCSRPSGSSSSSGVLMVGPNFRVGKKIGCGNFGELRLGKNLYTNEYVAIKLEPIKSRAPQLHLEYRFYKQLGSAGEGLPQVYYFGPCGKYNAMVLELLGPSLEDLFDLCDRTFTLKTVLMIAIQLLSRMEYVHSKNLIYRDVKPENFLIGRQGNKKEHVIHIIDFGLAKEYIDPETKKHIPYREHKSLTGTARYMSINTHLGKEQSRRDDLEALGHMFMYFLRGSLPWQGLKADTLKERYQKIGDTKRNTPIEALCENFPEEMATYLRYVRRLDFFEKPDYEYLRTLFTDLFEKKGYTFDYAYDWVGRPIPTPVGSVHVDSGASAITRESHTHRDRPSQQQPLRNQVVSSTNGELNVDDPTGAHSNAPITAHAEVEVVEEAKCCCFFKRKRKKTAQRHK
Chain of Dual specificity mitogen-activated protein kinase kinase 3 (Homo sapiens) (P46734 whole entry): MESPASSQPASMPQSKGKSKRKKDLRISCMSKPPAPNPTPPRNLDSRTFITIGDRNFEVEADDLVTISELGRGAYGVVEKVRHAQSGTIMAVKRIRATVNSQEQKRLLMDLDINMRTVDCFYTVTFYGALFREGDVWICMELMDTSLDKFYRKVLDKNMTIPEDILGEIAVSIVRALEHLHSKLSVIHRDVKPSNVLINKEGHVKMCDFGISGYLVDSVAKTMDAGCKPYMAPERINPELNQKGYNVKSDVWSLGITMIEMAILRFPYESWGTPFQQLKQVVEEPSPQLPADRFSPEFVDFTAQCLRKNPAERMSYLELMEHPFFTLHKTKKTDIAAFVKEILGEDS
Chain of Tyrosine-protein kinase Lck (Homo sapiens) (P06239 2-509 limits assumed): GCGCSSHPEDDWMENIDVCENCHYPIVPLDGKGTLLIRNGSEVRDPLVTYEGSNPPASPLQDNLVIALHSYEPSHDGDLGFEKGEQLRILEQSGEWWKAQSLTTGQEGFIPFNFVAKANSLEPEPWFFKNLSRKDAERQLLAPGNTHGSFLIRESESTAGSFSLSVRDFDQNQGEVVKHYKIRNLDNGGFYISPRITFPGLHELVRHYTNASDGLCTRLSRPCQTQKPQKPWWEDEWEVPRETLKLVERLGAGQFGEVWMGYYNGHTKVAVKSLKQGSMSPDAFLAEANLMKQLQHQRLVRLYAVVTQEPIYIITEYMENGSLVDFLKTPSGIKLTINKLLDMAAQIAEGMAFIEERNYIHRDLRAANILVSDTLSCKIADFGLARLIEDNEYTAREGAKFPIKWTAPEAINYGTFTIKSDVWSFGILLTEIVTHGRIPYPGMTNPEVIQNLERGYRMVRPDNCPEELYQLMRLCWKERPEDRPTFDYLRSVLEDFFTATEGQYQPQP
Chain of Adenosine receptor A3 (Homo sapiens) (P0DMS8 whole entry): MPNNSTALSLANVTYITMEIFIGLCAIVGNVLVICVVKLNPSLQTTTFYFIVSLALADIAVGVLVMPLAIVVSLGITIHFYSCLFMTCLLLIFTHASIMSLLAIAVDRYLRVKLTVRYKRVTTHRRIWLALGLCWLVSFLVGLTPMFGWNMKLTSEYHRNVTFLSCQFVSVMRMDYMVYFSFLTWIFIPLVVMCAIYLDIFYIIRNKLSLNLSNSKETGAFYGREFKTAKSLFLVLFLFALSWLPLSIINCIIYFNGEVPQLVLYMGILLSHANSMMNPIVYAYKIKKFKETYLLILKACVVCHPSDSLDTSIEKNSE

COc1ccc2cc(OCC3(C(=O)O)CN(C(=O)c4ccc(F)cc4)C3)ccc2c1 [PF-04418948]
residual activity [1]: 83%
residual activity [2]: 100%
residual activity [3]: 76%
residual activity [4]: 94%
residual activity [5]: 91%
inhibition at 10 µM [6]: -3% (not active)
residual activity [7]: 67%
inhibition [8]: -6%
inhibition [9]: 9%
inhibition [10]: -2%
residual activity [11]: 94%
residual activity [12]: 85%
residual activity [13]: 90%
residual activity [14]: 90%
residual activity [15]: 95%
inhibition [16]: -10%
residual activity [17]: 35%
residual activity [18]: 88%
residual activity [19]: 99%
inhibition [20]: 16%
residual activity [21]: 87%
residual activity [22]: 87%
residual activity [23]: 82%
inhibition [24]: 1%
residual activity [25]: 88%
residual activity [26]: 90%
residual activity [27]: 80%
inhibition [28]: 9%
residual activity [29]: 90%
residual activity [30]: 96%
